Patent US10172816B2, “Method of treating chronic obstructive pulmonary disease (CPD) with verproside” (YUNGJIN PHARMACEUTICAL CO., LTD, priority 2013, dated 2019)

What was measured:
[1] = molecular target: ADBR2 (beta-2 adrenergic receptor) GPCR (Homo sapiens, UniProt P07550); assay: ADBR2 GPCR-targeting cell-based assay (spot formation); conditions: 20 micromole; U2OS cells stably expressing ADBR2 GPCR
[2] = tested on: inflammatory immunocytes and neutrophils in BALF; assay: COPD mouse model (LPS+CS, i.t.): immunocytes, neutrophils and T lymphocytes in BALF; assay type: in vivo, BALB/c mice; conditions: 15 mg/kg, p.o.
Method: Specific pathogen-free male BALB/c mice (about 18-20 g), aged 8 weeks, which were routinely screened serologically for relevant respiratory pathogens, were purchased from ORIENT Co. (www.orient.co.kr, Seoul, Korea) and bred allowing to access freely to feed and water in breeding room controlling the temperature of 22±2° C., and humidity of 55±15% at the light-dark cycle for 12 hours and acclimated with the experimental environment for 1 week. […] 8 weeks aged BALB/c male mice was anaesthetized with 7% chloral hydrate and 100 μl of LPS+CS mixture {LPS (100 μg/ml)+standard cigarette extract (Cigarette smoking (CS), 4 mg/ml)=1:1} was inhaled to mice (i.t.) for three weeks once a week to prepare COPD animal model. Briefly, 100 μl of LPS+CS mixture was evenly inhaled to nose and mouth of fastened mice (i.t). […] After the end of experiment, the blood, BALF, and pneumonocyte of each mice were isolated and collected to test. After blood collection, 1 ml of FBS-free/DMEM medium contained in injector was injected to the trachea of autopsied mice, and the mice was fixed with string to circulate the blood three times and isolate the cell from BALF. […] The isolated PBMCs, BAL (Bronchoalveolar lavage), and pneumocyte were adjusted to 5×10^5 cells and performed to immunofluorescence staining at 4° C. PE-anti-CD3e (553064, BD Pharmingen, USA), FITC-anti-CD8 (553031, BD Pharmingen, USA), PE-anti-CD4 (553047, BD Pharmingen, USA), PE-anti-Gr-1 (553128, BD Pharmingen, USA), and FITC-anti-neutrophil (ab55453, Abcam, UK) were added thereto, respectively, and reacted for 30 mins in ice. After the reaction, the cells were washed with phosphate buffered physiological saline solution more than three times and the cell frequency (%) of CD3^+CD4^+& CD3^+CD8^+, and Gr-1^+Neutrophil^+ was determined using by Cell Quest program (643274, BD Biosciences, USA) of the flow cytometer (FACSCalibur, Becton, Dickinson, USA) and the absolute total number in each tissue was calculated by applying total cells.

[3] = tested on: MIP-2/CXCL-2; assay: COPD mouse model (LPS+CS): MIP-2/CXCL-2 in BALF by ELISA; assay type: in vivo, BALB/c mice; conditions: 15 mg/kg, p.o.
[4] = tested on: KC/CXCL-1 (Chemokines Gro-α); assay: COPD mouse model (LPS+CS): KC/CXCL-1 in BALF by ELISA; assay type: in vivo, BALB/c mice; conditions: 15 mg/kg, p.o.
Method: (§1) 8 weeks aged BALB/c male mice was anaesthetized with 7% chloral hydrate and 100 μl of LPS+CS mixture {LPS (100 μg/ml)+standard cigarette extract (Cigarette smoking (CS), 4 mg/ml)=1:1} was inhaled to mice (i.t.) for three weeks once a week to prepare COPD animal model. Briefly, 100 μl of LPS+CS mixture was evenly inhaled to nose and mouth of fastened mice (i.t). […] After the end of experiment, the blood, BALF, and pneumonocyte of each mice were isolated and collected to test. The level of IL-1β, IL-6, TNF-a, IL-17, MCP-1, and GRO-a (BioSource, USA) in BALF isolated from mice was determined by enzyme-linked immuno-sorbent assay. Respective antibodies against L-1β, IL-6, TNF-a, IL-17, MCP-1, and GRO-a were diluted with a coating buffer solution (291195, R&D System, USA), coated on a microwell and left alone for overnight at 4° C. Each well was washed three times with washing buffer solution and 100 μl of 10-fold diluted serum was added thereto. […] The solution was left alone for 30 mins in shadow and added with 50 μl of stop solution (DY994, R&D system, USA) to determine the absorbance using by ELISA leader at 450 nm (340PC384, Molecular Devices, USA).

[5] = tested on: TNF-α; assay: COPD mouse model (LPS+CS): TNF-α in BALF by ELISA; assay type: in vivo, BALB/c mice; conditions: 15 mg/kg, p.o.
Method: as §1

[6] = tested on: Mucin 5A/C; assay: Digitization of Mucin 5A/C expression in A549 cells by high content screening; assay type: cell-based, human; conditions: 1, 5 and 10 ng/ml, versus control medium (GM)
Method: Accordingly, the present inventors developed novel high throughput screening test by introducing high content screening system which can quantitatively determine the expression of target protein in animal cell level and in order to screening the inhibiting agent of Mucin 5AC expression, following test was performed by modifying the target activator method published on Cellomics BioApplication.
A549 cell line (ATCC, CCL-185), a epithelial cell line isolated from human lung cancer tissue was seeded on 96 well plates (5,000 cells/well) and 24 hrs after the seeding, 20 ng/ml of bFGF, 100 ng/ml of EGF, 20 micromole IGF, 5 ng/ml of TGF-beta1, 30 nanomole acrolein, 5 nanomole PMA, 1 microgram/ml, LPS and 20 ng/ml of IL-1 beta were treated therewith. The expression of Mucin 5A/C was digitized by target activator program in Cellomics apparatus.
Various concentrations of TGF-beta 1 (PeproTech, #100-21), i.e., 1, 5 and 10 ng/ml TGF-beta 1 were treated with A549 cell line (ATCC, CCL-185), and the expression of Mucin 5A/C was digitized by target activator program in Cellomics apparatus.
Various concentrations of ATC2 extract were treated with A549 cell line for 2 hours and then […] TNF-alpha (Sigma, H8916) was treated therewith for 24 hours. The expression of Mucin 5A/C was digitized by target activator program in Cellomics apparatus.

[7] = tested on: Mucin 5A/C; assay: Acrolein-induced Mucin 5A/C expression in A549 cells (RT-PCR); assay type: cell-based, human; conditions: pre-treated 1 hour, then 30 nM acrolein, dose dependent
Method: The diluted A549 cell line (ATCC, CCL-185) with DMEM medium supplemented with 5% phenol red and FBS (Fetal Bovine Serum) was seeded in 6 well plates (4×10^5 cells/well) to adhere thereto for a night, and 20 and 40 microgram/ml of ATC2 extract were treated with A549 cell line for 1 hours. 30 nM acrolein was treated therewith to induce Mucin 5A/C expression. The medium was removed the cell, washed with PBS solution and homogenized with Trizol (Invitrogen, CA, USA) for the isolation of ribonucleic acids from the cells for 5 mins. the cells were collected, transferred to centrifugal separator, completely mixed with chloroform for 15 seconds, left alone for 3 mins and centrifuged for 15 mins at the speed of 14,000 rpm. The supernatant containing ribonucleic acid was transferred to new tube and mixed with isopropylalcohol for 10 mins. The solution was centrifuged to discard the supernatant and 75% ethanol was added to the precipitate. The precipitate was centrifuged for 5 mins at the speed of 10,000 rpm and the supernatant was discarded. The precipitated ribonucleic acid was dried at room temperature for 20 mins. […] After the quantification of ribonucleic acid, the complementary DNA was synthesized using by 1 microgram of RNA and RT-kit (Omniscript RT kit, Qiagen, USA) and the synthetic cDNA was used as a template. […]

ADBR2 (beta-2 adrenergic receptor) GPCR, sequence (P07550 whole entry): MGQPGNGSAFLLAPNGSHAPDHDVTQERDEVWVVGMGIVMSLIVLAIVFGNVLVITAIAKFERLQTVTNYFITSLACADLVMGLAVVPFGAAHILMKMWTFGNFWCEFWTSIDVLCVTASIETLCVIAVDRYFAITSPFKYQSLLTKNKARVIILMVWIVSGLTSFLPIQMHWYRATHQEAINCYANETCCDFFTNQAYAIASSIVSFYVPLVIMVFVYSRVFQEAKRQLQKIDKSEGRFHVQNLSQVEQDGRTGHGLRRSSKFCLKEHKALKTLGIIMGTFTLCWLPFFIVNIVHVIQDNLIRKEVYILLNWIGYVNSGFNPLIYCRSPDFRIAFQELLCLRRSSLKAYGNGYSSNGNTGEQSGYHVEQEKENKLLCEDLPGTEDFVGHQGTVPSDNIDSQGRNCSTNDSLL

O=C(O[C@H]1[C@@H]2C=CO[C@@H](O[C@@H]3O[C@H](CO)[C@@H](O)[C@H](O)[C@H]3O)[C@@H]2[C@@]2(CO)O[C@@H]12)c1ccc(O)cc1 [catalposide, 6-O-(4-hydroxybenzolyl) catalpol]
spot formation [1]: did not show spot formation

O=C(Nc1c(Cl)cncc1Cl)c1ccc(OC(F)F)c(OCC2CC2)c1 [Roflumilast, reference compound]
number of total immunocyte in BALF compared with control group [2]: sharply reduced
reduction of number of neutrophils (Diff-Quik stained, cytospin) in BALF compared with control group [2]: > 99.0%
reduction of total absolute cell number of CD8+ T cell in BALF compared with control group [2]: more than 67.2%
reduction of total absolute cell number of Neutrophils+Gr-1+ cell in BALF compared with control group [2]: > 97.5%
reduction of chemokines MIP-2/CXCL-2 in BALF compared with control group [3]: > 81.9%
reduction of chemokine KC/CXCL-1 in BALF compared with control group [4]: > 82.7%
reduction of TNF-α in BALF compared with control group [5]: > 65.0%

TGF-beta1: TGF-beta 1 (PeproTech, #100-21)
expression of Mucin 5A/C [6]: more inhibited the expression of MUCSA/C than control medium

COc1ccc(C(=O)O[C@H]2[C@@H]3C=CO[C@@H](O[C@@H]4O[C@H](CO)[C@@H](O)[C@H](O)[C@H]4O)[C@@H]3[C@@]3(CO)O[C@@H]23)cc1OC [6-O-veratroyl catalpol, 6-O-(3,4-dimethoxybenzoly) catalpol]
expression of Mucin 5A/C (mRNA, RT-PCR) [7]: inhibited
spot formation [1]: did not show spot formation

COc1cc(C(=O)O[C@H]2[C@@H]3C=CO[C@@H](O[C@@H]4O[C@H](CO)[C@@H](O)[C@H](O)[C@H]4O)[C@@H]3[C@@]3(CO)O[C@@H]23)ccc1O [picroside II, 6-O-(4-hydroxy-3-methoxybenzoly) catalpol]
spot formation [1]: did not show spot formation

COc1ccc(C(=O)O)cc1OC [veratric acid]
spot formation [1]: did not show spot formation

COc1ccc(C(=O)OC2C3C=COC(OC4OC(CO)C(O)C(O)C4O)C3C3(CO)OC23)cc1O (centres unmarked) [isovanilloyl catalpol, 6-O-(3-hydroxy-4-methoxybenzoyl)catalpol]
spot formation [1]: did not show spot formation
